Results reported in PMC12693182, “Synthesis and QSAR Studies of Claramine Derivatives, a New Class of Broad-Spectrum Antimicrobial Agents” (Molecules, 2025).
Values after ≈ are worked out from the molar mass of the structure shown. Read-outs that look alike come from different tables or passages of the source.

What was measured:
[1] = tested on: Chinese hamster Ovary cells (CHO-K1); experiment: Cytotoxicity assay (WST-1 / Neutral Red); format: cell-based; details: 24-h incubation; for IC50: Cricetulus griseus, 24 h
Description: The cytotoxic activities of compounds were assessed on Chinese hamster Ovary cells (CHO-K1) provided from ATCC-LGC Standards Sarl (Molsheim, France). Cells were maintained in Mc Coy’s 5A (CHO) medium supplemented with 10% bovine calf serum, 2 mM glutamine, and 100 U mL^−1/10 µg mL^−1 penicillin/streptomycin mixtures. For the cytotoxicity experiments, they were seeded in 96-well plates and incubated at 37 °C in humidified atmosphere containing 5% CO2 overnight, then concentrations of compounds were incorporated in triplicate cultures. After a 24-h incubation period at 37 °C, cells were submitted to three successive washes in phosphate buffer saline (PBS) and cell viability was evaluated by two different vital dyes: • i. A first set of cell cultures was incubated in PBS containing 10% WST-1 for 30 min at 37 °C, 5% CO2. Cell viability was evaluated by the assessment of WST-1 absorbance at 450 nm in a microplate spectrophotometer. • ii. A second set of cell cultures was placed into Neutral Red medium (50 μg mL^−1 Neutral Red in complete medium) and incubated for 3 h at 37 °C, 5% CO2. Then the Neutral Red medium was removed and the distaining solution (50% ethanol, 1% acetic acid, 49% distilled water; 50 µL per well) was added into the wells. The plates were shaken for 15–20 min at room temperature in the dark. Cell viability was evaluated by the assessment of absorbance at 540 nm in a microplate spectrophotometer.
Results were expressed as percentages of cell viability about the control (culture medium-only), which corresponded to 100% cell viability. Dose-response curves were calculated by non-linear regression analysis with TableCurve 2D software (V 5.0.1) (Systat Software Inc., San Jose, CA, USA). The Inhibitory Concentration 50% (IC50) was defined as the concentration of compounds that induced a 50% decrease of viable cells.

[2] = tested on: S. intermedius 1051997; experiment: MIC, broth microdilution; format: cell-based, Staphylococcus intermedius; details: for MIC: Staphylococcus intermedius, 1051997, 24 h, 24 h
Description: (§1) Antimicrobial activity of the compounds was studied by determination of minimal inhibitory concentrations (MIC) according to the NCCLS guidelines M7-A2 using the microbroth dilution methods. The bacteria strains were grown on trypticase soy agar (Becton Dickinson) at 37 °C for 24 h. Inocula were prepared in TCE (tryptone 0.1%, […], wt/vol) by ajusting the turbidity at 623 nm to obtain 1–3 10^5 CFU/mL.
(§2) Antimicrobial activities of the compounds were determined by using a broth microdilution method performed in sterile 96-well microplates. All compounds were solubilized in water at a concentration of 10 mM and were transferred to each microplate well in order to obtain a two-fold serial dilution in 100 µL of broth and 100 µL of inoculum containing 2–6 10^5 CFU of each bacterium were added to each well. Some wells were reserved for positive controls and inoculum viability.

[3] = tested on: P. aeruginosa ATCC 27853; experiment: MIC, broth microdilution; format: cell-based, Pseudomonas aeruginosa; details: Pseudomonas aeruginosa, ATCC27853, 24 h, ATCC strain
Description: as §1, §2

[4] = tested on: P. aeruginosa 1051575; experiment: MIC, broth microdilution; format: cell-based, Pseudomonas aeruginosa; details: for MIC: Pseudomonas aeruginosa, 1051575, 24 h, 24 h
Description: as §1, §2

[5] = tested on: Gram-positive and Gram-negative human and veterinary reference strains; experiment: MIC against the panel of Gram-positive and Gram-negative reference strains; format: cell-based; details: for MIC: over several or all of the tested pathogens; for Therapeutic Ratio (TR): IC50 (CHO)/MIC, over several of the tested pathogens
From the text: Typically, cytotoxicity was expressed as the half maximal inhibitory concentration (IC50), defined as the concentration of a compound that decreases cell viability by 50% relative to untreated cells. This parameter provides a quantitative measure of a compound’s toxic potential toward mammalian cells. To facilitate data interpretation, we defined the Therapeutic Ratio (TR) as the ratio of IC50 (µg/mL) to MIC (µg/mL). This dimensionless parameter provides a straightforward measure of antibacterial selectivity, allowing direct comparison of cytotoxicity and antibacterial potency. A high TR value indicates compounds with strong antibacterial activity at concentrations far below their cytotoxic threshold, whereas a TR close to unity reflects poor selectivity and limited therapeutic potential. […] Within the Claramine A series, variations in IC50 strongly impacted TR values (Figure 5).
as §1, §2

[6] = tested on: E. coli 1956; experiment: MIC, broth microdilution; format: cell-based, Escherichia coli; details: Escherichia coli, 1956, 24 h
Description: as §1, §2

[7] = tested on: E. coli ATCC 25922; experiment: MIC, broth microdilution; format: cell-based, Escherichia coli; details: Escherichia coli, ATCC25922, 24 h, ATCC strain
Description: as §1, §2

[8] = tested on: S. aureus ATCC 25923; experiment: MIC, broth microdilution; format: cell-based, Staphylococcus aureus; details: Staphylococcus aureus, ATCC25923, 24 h, ATCC strain
Description: as §1, §2

[9] = tested on: S. aureus 340; experiment: MIC, broth microdilution; format: cell-based, Staphylococcus aureus; details: for MIC S. aureus 340: 24 h; for MIC: Staphylococcus aureus, 340, 24 h
Description: as §1, §2

[10] = tested on: E. faecalis ATCC29212; experiment: MIC, broth microdilution; format: cell-based, Enterococccus faecalis; details: Enterococcus faecalis, ATCC29212, 24 h, ATCC strain, read-out: MIC E. faecalis 29212
Description: as §1, §2

[11] = tested on: S. aureus 340 and P. aeruginosa 1051575; experiment: MIC against S. aureus and P. aeruginosa strains (Figure 6); format: cell-based; details: range over both strains, C-24 methyl ester series
Description: as §1, §2

[12] = Homo sapiens, 24 h, read-out: MIC

## CC(C)OC(=O)CCC(C)C1CCC2C3CCC4CC(NCCCNCCCCNCCCN)CCC4(C)C3CC(O)C12C (stereo not drawn) [Claramine A01, 3-Spermino Isopropyl Deoxycholate]
[1]
  IC50 CHO: 43 mg/L (≈ 69.5 µM)
  IC50: > 35 mg/L
[2]
  MIC: 8 mg/L (≈ 12.9 µM)
[3]
  MIC: 8 mg/L (≈ 12.9 µM)
[4]
  MIC: 15 mg/L (≈ 24.2 µM)
[5]; [12]
  MIC: < 15 mg/L
[5]
  Therapeutic Ratio (TR): > 5
  MIC: increased membrane permeabilization and concomitant disruption of proton homeostasis
[6]
  MIC: 15 mg/L (≈ 24.2 µM)
[7]
  MIC: 4 mg/L (≈ 6.46 µM)
[8]
  MIC: 2 mg/L (≈ 3.23 µM)
[9]
  MIC S. aureus 340: 2 mg/L (≈ 3.23 µM)
  MIC: < 4 mg/L
[10]
  MIC: 30 mg/L (≈ 48.5 µM)

## CC(C)OC(=O)CCC(C)C1CCC2C3CCC4CC(NCCCNCCCNCCCN)CCC4(C)C3CC(O)C12C (stereo not drawn) [Claramine A02]
[1]
  IC50: 51 mg/L (≈ 84.3 µM)
[2]
  MIC: 2 mg/L (≈ 3.31 µM)
[3]
  MIC: 8 mg/L (≈ 13.2 µM)
[4]
  MIC: 8 mg/L (≈ 13.2 µM)
[5]; [12]
  MIC: < 15 mg/L
[5]
  Therapeutic Ratio (TR): > 5
[6]
  MIC: 15 mg/L (≈ 24.8 µM)
[7]
  MIC: 8 mg/L (≈ 13.2 µM)
[8]
  MIC: 4 mg/L (≈ 6.61 µM)
[9]
  MIC: 2 mg/L (≈ 3.31 µM)
[10]
  MIC: 8 mg/L (≈ 13.2 µM)

## CC(C)OC(=O)CCC(C)C1CCC2C3CCC4CC(NCCCNCCCCN)CCC4(C)C3CC(O)C12C (stereo not drawn) [Claramine A03]
[1]
  IC50: 73 mg/L (≈ 130 µM)
[2]
  MIC: 4 mg/L (≈ 7.12 µM)
[3]
  MIC: 14 mg/L (≈ 24.9 µM)
[4]
  MIC: 14 mg/L (≈ 24.9 µM)
[5]; [12]
  MIC: < 15 mg/L
[5]
  Therapeutic Ratio (TR): > 5
[6]
  MIC: 14 mg/L (≈ 24.9 µM)
[7]
  MIC: 14 mg/L (≈ 24.9 µM)
[8]
  MIC: 7 mg/L (≈ 12.5 µM)
[9]
  MIC: 2 mg/L (≈ 3.56 µM)
[10]
  MIC: 14 mg/L (≈ 24.9 µM)

## COC(=O)CCC(C)C1CCC2C3CCC4CC(NCCCNCCCCNCCCN)CCC4(C)C3CC(O)C12C (stereo not drawn) [Claramine A05]
[1]
  IC50: 8 mg/L (≈ 13.5 µM)
[11]
  MIC: 2 to 4 mg/L (≈ 3.38 to 6.77 µM)

## COC(=O)CCC(C)C1CCC2C3CCC4CC(NCCCNCCCNCCCN)CCC4(C)C3CC(O)C12C (stereo not drawn) [Claramine A06]
[11]
  MIC: 2 to 4 mg/L (≈ 3.47 to 6.93 µM)

## COC(=O)CCC(C)C1CCC2C3CCC4CC(NCCCNCCCN)CCC4(C)C3CC(O)C12C (stereo not drawn) [Claramine A08]
[1]
  IC50: 21 mg/L (≈ 40.4 µM)
[2]
  MIC: 0.4 mg/L (≈ 0.77 µM)
[3]
  MIC: 3 mg/L (≈ 5.77 µM)
[4]
  MIC: 3 mg/L (≈ 5.77 µM)
[5]; [12]
  MIC: < 15 mg/L
[5]
  Therapeutic Ratio (TR): > 5
[6]
  MIC: 13 mg/L (≈ 25 µM)
[7]
  MIC: 3 mg/L (≈ 5.77 µM)
[8]
  MIC: 2 mg/L (≈ 3.85 µM)
[9]
  MIC: 3 mg/L (≈ 5.77 µM)
[10]
  MIC: 3 mg/L (≈ 5.77 µM)

## COC(=O)CCC(C)C1CCC2C3CCC4CC(NCCCCN)CCC4(C)C3CC(O)C12C (stereo not drawn) [Claramine A11]
[11]
  MIC: 6 to 50 mg/L (≈ 12.6 to 105 µM)

## COC(=O)CCC(C)C1CCC2C3CCC4CC(NCCCCCN)CCC4(C)C3CC(O)C12C (stereo not drawn) [Claramine A12]
[11]
  MIC: 6 to 50 mg/L (≈ 12.2 to 102 µM)

## COC(=O)CCC(C)C1CCC2C3CCC4CC(NCCNCCNCCNCCNCN)CCC4(C)C3CC(O)C12C (stereo not drawn) [Claramine A15]
[1]
  IC50: 93 mg/L (≈ 153 µM)
[2]
  MIC: 1 mg/L (≈ 1.65 µM)
[3]
  MIC: 8 mg/L (≈ 13.2 µM)
[4]
  MIC: 8 mg/L (≈ 13.2 µM)
[5]; [12]
  MIC: < 15 mg/L
[5]
  Therapeutic Ratio (TR): > 5
[6]
  MIC: 14 mg/L (≈ 23.1 µM)
[7]
  MIC: 8 mg/L (≈ 13.2 µM)
[8]
  MIC: 4 mg/L (≈ 6.59 µM)
[9]
  MIC: 6 mg/L (≈ 9.89 µM)
[10]
  MIC: 16 mg/L (≈ 26.4 µM)

## COC(=O)CCC(C)C1CCC2C3CCC4CC(NCCCN(C)CCCN)CCC4(C)C3CC(O)C12C (stereo not drawn) [Claramine A16]
[11]
  MIC: 7 to 14 mg/L (≈ 13.1 to 26.2 µM)

## COC(=O)CCC(C)C1CCC2C3CCC4CC(NCCCN(CCCN)CCCN)CCC4(C)C3CC(O)C12C (stereo not drawn) [Claramine A17]
[11]
  MIC: 7 to 14 mg/L (≈ 12.1 to 24.3 µM)

## COC(=O)CCC(C)C1CCC2C3CCC4CC(NCCCNCCCN)CCC4(C)C3CCC12C (stereo not drawn) [Claramine E09]
[1]
  IC50 CHO: 80 mg/L (≈ 159 µM)
  IC50: > 60 mg/L
[2]; IC50 (CHO)/MIC, S. intermedius
  Therapeutic Ratio (TR): 65–114
[2]
  MIC: 0.7 mg/L (≈ 1.39 µM)
[3]
  MIC: 32 mg/L (≈ 63.5 µM)
[4]; IC50 (CHO)/MIC, P. aeruginosa
  Therapeutic Ratio (TR): > 10
[5]; Homo sapiens, 24 h
  MIC: 0.7 to 30 mg/L (≈ 1.39 to 59.5 µM)
[6]
  MIC: 3 mg/L (≈ 5.95 µM)
[7]
  MIC: 32 mg/L (≈ 63.5 µM)
[8]
  MIC: 16 mg/L (≈ 31.8 µM)
[9]
  MIC S. aureus 340: 0.7 mg/L (≈ 1.39 µM)
  MIC: 1 mg/L (≈ 1.98 µM)
[10]
  MIC: 32 mg/L (≈ 63.5 µM)
